Columns and labels:
AR / CBP ternary complex = AR / CBP ternary complex (Homo sapiens, UniProt P10275+Q92793); assay: Ternary complex formation assay (sandwich ELISA, AR capture, CBP antibody detection) in VCaP cell lysates; format: cell-based; conditions: treated 1.5 hours, rabbit CBP or p300 antibody detection, average, read-out: Average Ternary Complex
Method in brief: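 VCaP cells in 5% charcoal-stripped FBS were cultured ≥3 days and then given bifunctional compound for 1.5 h. Lysates went onto AR-antibody-coated plates. Bound CBP (or p300) was detected with a rabbit antibody plus HRP anti-rabbit, using QuantaRed chemifluorescence (ex 570/em 585) read immediately, at 5 min and at 15 min.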

VCaP cells = assay: VCaP growth inhibition assay (CTG); format: cell-based; conditions: Homo sapiens, 216 h, 30 pM R1881, 9 days
Method in brief: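 VCaP cells in phenol red-free DMEM with 5% charcoal-stripped serum were stimulated with 30 pM R1881 (final) and treated with compound from 100 nM to 10 fM final (1:5 dilutions) for 9 days at 37 °C. Viability was read by CellTiter-Glo luminescence, and IC50 came from 4-parameter logistic fits.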

AR / CBP ternary complex, sequence (P10275 whole entry): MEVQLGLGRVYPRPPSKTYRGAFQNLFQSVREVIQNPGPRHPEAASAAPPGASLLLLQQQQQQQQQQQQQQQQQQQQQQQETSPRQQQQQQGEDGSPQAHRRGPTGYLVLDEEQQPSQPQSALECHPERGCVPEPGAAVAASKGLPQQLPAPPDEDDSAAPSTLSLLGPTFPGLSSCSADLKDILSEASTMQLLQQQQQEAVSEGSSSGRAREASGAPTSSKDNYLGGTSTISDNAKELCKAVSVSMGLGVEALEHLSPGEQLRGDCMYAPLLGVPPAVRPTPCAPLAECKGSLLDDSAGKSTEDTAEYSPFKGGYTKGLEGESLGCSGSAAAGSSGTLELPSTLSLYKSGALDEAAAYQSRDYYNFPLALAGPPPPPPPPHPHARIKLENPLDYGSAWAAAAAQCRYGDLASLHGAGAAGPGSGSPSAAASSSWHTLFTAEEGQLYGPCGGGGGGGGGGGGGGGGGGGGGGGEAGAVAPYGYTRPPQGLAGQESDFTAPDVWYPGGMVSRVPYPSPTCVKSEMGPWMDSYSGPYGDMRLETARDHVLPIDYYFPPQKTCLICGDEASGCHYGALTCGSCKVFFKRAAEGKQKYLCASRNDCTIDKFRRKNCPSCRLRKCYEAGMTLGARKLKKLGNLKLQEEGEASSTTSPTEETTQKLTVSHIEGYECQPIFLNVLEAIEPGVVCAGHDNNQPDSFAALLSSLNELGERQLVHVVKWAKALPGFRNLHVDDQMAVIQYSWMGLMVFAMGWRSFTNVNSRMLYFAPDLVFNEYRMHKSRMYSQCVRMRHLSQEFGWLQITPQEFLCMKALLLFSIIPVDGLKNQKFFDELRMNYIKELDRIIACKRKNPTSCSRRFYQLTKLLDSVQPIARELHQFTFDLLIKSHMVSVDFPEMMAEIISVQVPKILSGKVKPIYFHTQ
AR / CBP ternary complex, sequence (Q92793 2-2442): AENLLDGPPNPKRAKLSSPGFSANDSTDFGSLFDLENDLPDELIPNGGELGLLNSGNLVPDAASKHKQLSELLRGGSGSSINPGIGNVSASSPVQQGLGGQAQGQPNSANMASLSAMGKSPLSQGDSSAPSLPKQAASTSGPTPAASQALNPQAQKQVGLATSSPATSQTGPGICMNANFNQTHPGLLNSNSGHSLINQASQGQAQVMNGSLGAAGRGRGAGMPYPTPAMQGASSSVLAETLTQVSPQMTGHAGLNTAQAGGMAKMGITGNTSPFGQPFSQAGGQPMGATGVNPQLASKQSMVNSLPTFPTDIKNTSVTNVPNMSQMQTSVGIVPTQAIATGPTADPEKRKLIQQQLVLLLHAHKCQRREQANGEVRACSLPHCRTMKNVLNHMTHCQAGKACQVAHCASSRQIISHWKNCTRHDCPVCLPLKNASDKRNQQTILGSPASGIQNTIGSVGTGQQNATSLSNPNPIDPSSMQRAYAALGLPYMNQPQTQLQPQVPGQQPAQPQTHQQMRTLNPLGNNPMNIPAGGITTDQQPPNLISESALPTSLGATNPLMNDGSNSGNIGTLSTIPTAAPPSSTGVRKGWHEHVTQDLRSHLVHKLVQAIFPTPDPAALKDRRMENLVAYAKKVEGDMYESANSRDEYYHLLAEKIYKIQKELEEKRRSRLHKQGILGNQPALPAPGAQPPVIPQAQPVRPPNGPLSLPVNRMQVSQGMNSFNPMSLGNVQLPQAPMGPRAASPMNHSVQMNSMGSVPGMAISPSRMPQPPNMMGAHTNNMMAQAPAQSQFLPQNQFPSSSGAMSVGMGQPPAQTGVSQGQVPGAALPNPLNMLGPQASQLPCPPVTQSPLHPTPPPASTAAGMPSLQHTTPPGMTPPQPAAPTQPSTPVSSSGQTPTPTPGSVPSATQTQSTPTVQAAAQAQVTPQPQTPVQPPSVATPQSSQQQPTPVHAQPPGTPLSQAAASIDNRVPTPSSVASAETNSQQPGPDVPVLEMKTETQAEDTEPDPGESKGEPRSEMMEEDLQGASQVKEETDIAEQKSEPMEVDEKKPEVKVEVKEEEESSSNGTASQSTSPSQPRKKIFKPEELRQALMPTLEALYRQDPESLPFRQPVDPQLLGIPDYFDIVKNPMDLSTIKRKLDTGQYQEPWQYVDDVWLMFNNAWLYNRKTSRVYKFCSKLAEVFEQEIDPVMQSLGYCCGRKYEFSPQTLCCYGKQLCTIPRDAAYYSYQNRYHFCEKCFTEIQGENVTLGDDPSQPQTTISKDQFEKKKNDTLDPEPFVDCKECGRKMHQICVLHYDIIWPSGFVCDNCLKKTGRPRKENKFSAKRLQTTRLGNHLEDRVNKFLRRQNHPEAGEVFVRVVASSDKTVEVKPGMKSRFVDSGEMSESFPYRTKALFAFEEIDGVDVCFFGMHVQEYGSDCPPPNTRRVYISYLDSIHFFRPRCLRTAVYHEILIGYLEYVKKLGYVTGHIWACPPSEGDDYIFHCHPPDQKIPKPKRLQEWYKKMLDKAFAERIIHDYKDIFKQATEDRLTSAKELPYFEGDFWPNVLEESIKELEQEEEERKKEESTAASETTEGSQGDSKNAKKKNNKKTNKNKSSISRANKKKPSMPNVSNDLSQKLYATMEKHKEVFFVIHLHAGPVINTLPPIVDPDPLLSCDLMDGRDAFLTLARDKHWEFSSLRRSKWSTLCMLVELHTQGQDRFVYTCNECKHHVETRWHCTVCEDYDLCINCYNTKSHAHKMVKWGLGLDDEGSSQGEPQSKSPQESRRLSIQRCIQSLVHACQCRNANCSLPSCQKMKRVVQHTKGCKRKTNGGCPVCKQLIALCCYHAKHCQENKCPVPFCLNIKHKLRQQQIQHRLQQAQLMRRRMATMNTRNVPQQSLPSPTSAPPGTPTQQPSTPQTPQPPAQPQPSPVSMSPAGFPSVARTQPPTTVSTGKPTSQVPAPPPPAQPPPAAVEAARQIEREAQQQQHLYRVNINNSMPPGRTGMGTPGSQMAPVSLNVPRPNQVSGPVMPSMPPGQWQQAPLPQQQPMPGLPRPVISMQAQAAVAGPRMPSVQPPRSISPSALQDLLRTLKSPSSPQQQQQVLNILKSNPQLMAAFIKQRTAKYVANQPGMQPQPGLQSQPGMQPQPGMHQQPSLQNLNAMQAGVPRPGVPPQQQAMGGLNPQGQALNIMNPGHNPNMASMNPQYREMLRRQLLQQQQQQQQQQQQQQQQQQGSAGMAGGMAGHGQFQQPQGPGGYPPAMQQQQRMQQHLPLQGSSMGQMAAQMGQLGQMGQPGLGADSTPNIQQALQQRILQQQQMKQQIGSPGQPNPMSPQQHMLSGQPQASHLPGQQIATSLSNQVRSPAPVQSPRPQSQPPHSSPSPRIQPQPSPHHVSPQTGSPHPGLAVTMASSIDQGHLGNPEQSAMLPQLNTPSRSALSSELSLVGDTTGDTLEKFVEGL

Structure (SMILES): CO[C@@H]1CN(c2ccc(C(=O)N[C@H]3CC[C@H](Oc4ccc(C#N)c(Cl)c4)CC3)nn2)CC[C@@H]1CN1CCC(n2nc(N3CCCc4cc(-c5cnn(C)c5)c(C(F)F)cc43)c3c2CCN(C(C)=O)C3)CC1 [Compound 219, 6-[4-[[4-[5-acetyl-3-[7-(difluoromethyl)-6-(1-methylpyrazol-4-yl)-3,4-dihydro-2H-quinolin-1-yl]-6,7-dihydro-4H-pyrazolo[4,3-c]pyridin-1-yl]-1-piperidyl]methyl]-3-methoxy-1-piperidyl]-N-[4-(3-chloro-4-cyano-phenoxy)cyclohexyl] pyridazine-3-carboxamide]
- EC50 (AR / CBP ternary complex): < 1 nM
- IC50 (VCaP cells): ≤ 0.1 nM

Structure (SMILES): CC(=O)N1CCc2c(c(N3CCCc4cc(-c5cnn(C)c5)c(C(F)F)cc43)nn2C2CCN([C@H]3CCN(c4ccc(C(=O)N[C@H]5CC[C@H](Oc6ccc(C#N)c(Cl)c6)CC5)nn4)C3)CC2)C1 [Compound 221, 6-[(3S)-3-[4-[5-acetyl-3-[7-(difluoromethyl)-6-(1-methylpyrazol-4-yl)-3,4-dihydro-2H-quinolin-1-yl]-6,7-dihydro-4H-pyrazolo[4,3-c]pyridin-1-yl]-1-piperidyl]pyrrolidin-1-yl]-N-[4-(3-chloro-4-cyano-phenoxy)cyclohexyl]pyridazine-3-carboxamide]
- EC50 (AR / CBP ternary complex): > 100 nM
- IC50 (VCaP cells): 1 to 100 nM

Structure (SMILES): CC(=O)N1CCc2c(c(N3CCCc4cc(-c5cnn(C)c5)c(C(F)F)cc43)nn2C2CCN([C@@H]3CCN(c4ccc(C(=O)N[C@H]5CC[C@H](Oc6ccc(C#N)c(Cl)c6)CC5)nn4)C3)CC2)C1 [Compound 222, 6-[(3R)-3-[4-[5-acetyl-3-[7-(difluoromethyl)-6-(1-methylpyrazol-4-yl)-3,4-dihydro-2H-quinolin-1-yl]-6,7-dihydro-4H-pyrazolo[4,3-c]pyridin-1-yl]-1-piperidyl]pyrrolidin-1-yl]-N-[4-(3-chloro-4-cyano-phenoxy)cyclohexyl] pyridazine-3-carboxamide]
- EC50 (AR / CBP ternary complex): < 1 nM
- IC50 (VCaP cells): 0.1 to 1 nM

Structure (SMILES): CC(=O)N1CCc2c(c(N3CCCc4cc(-c5cnn(C)c5)c(C(F)F)cc43)nn2[C@H]2CC[C@@H](OC3CN(c4ccc(C(=O)N[C@H]5CC[C@H](Oc6ccc(C#N)c(Cl)c6)CC5)nn4)C3)CC2)C1 [Compound 223, 6-[3-[4-[5-acetyl-3-[7-(difluoromethyl)-6-(1-methylpyrazol-4-yl)-3,4-dihydro-2H-quinolin-1-yl]-6,7-dihydro-4H-pyrazolo[4,3-c]pyridin-1-yl]cyclohexoxy]azetidin-1-yl]-N-[4-(3-chloro-4-cyano-phenoxy)cyclohexyl]pyridazine-3-carboxamide]
- EC50 (AR / CBP ternary complex): < 1 nM
- IC50 (VCaP cells): ≤ 0.1 nM

Structure (SMILES): CC(=O)N1CCc2c(c(N3CCCc4cc(-c5cnn(C)c5)c(C(F)F)cc43)nn2[C@H]2CC[C@H](OC3CN(c4ccc(C(=O)N[C@H]5CC[C@H](Oc6ccc(C#N)c(Cl)c6)CC5)nn4)C3)CC2)C1 [Compound 224, 6-[3-[4-[5-acetyl-3-[7-(difluoromethyl)-6-(1-methylpyrazol-4-yl)-3,4-dihydro-2H-quinolin-1-yl]-6,7-dihydro-4H-pyrazolo[4,3-c]pyridin-1-yl]cyclohexoxy]azetidin-1-yl]-N-[4-(3-chloro-4-cyanophenoxy)cyclohexyl]pyridazine-3-carboxamide]
- EC50 (AR / CBP ternary complex): < 1 nM
- IC50 (VCaP cells): ≤ 0.1 nM

Structure (SMILES): CC(=O)N1CCc2c(c(N3CCCc4cc(-c5cnn(C)c5)c(C(F)F)cc43)nn2C2CCN(C3CC4(C3)CN(c3ccc(C(=O)N[C@H]5CC[C@H](Oc6ccc(C#N)c(Cl)c6)CC5)nn3)C4)CC2)C1 [Compound 229, 6-[6-[4-[5-acetyl-3-[7-(difluoromethyl)-6-(1-methylpyrazol-4-yl)-3,4-dihydro-2H-quinolin-1-yl]-6,7-dihydro-4H-pyrazolo[4,3-c]pyridin-1-yl]-1-piperidyl]-2-azaspiro[3.3]heptan-2-yl]-N-[4-(3-chloro-4-cyano-phenoxy)cyclohexyl]pyridazine-3-carboxamide]
- EC50 (AR / CBP ternary complex): < 1 nM
- IC50 (VCaP cells): ≤ 0.1 nM

Structure (SMILES): CC(=O)N1CCc2c(c(N3CCCc4cc(-c5cnn(C)c5)c(C(F)F)cc43)nn2C2CCN(CC3CCN(c4ccc(C(=O)N[C@H]5CC[C@H](Oc6ccc(C#N)c(Cl)c6)CC5)nn4)CC3(C)C)CC2)C1 (some centres unmarked) [Compound 230, 6-[4-[[4-[5-acetyl-3-[7-(difluoromethyl)-6-(1-methylpyrazol-4-yl)-3,4-dihydro-2H-quinolin-1-yl]-6,7-dihydro-4H-pyrazolo[4,3-c]pyridin-1-yl]-1-piperidyl]methyl]-3,3-dimethyl-1-piperidyl]-N-[4-(3-chloro-4-cyano-phenoxy)cyclohexyl]pyridazine-3-carboxamide]
- EC50 (AR / CBP ternary complex): < 1 nM
- IC50 (VCaP cells): ≤ 0.1 nM

Structure (SMILES): CC(=O)N1CCc2c(c(N3CCCc4cc(-c5cnn(C)c5)c(C(F)F)cc43)nn2C2CCN(CC3CCN(c4ccc(C(=O)N[C@H]5CC[C@H](Oc6ccc(C#N)c(Cl)c6)CC5)nn4)CC34CC4)CC2)C1 (some centres unmarked) [Compound 231, 6-[8-[[4-[5-acetyl-3-[7-(difluoromethyl)-6-(1-methylpyrazol-4-yl)-3,4-dihydro-2H-quinolin-1-yl]-6,7-dihydro-4H-pyrazolo[4,3-c]pyridin-1-yl]-1-piperidyl]methyl]-5-azaspiro[2.5]octan-5-yl]-N-[4-(3-chloro-4-cyano-phenoxy)cyclohexyl]pyridazine-3-carboxamide]
- EC50 (AR / CBP ternary complex): < 1 nM
- IC50 (VCaP cells): ≤ 0.1 nM

Structure (SMILES): COC(=O)N1c2ccc3c(nc(Cc4ccccc4)n3[C@H]3CCC[C@H](CN4CCN(c5ccc(C(=O)N[C@H]6CC[C@H](Oc7ccc(C#N)c(Cl)c7)CC6)nn5)CC4)C3)c2CC[C@@H]1C [Compound 232, methyl (7S)-2-benzyl-3-[(1S,3S)-3-[[4-[6-[[4-(3-chloro-4-cyano-phenoxy)cyclohexyl]carbamoyl]pyridazin-3-yl]piperazin-1-yl]methyl]cyclohexyl]-7-methyl-8,9-dihydro-7H-imidazo[4,5-f]quinoline-6-carboxylate]
- EC50 (AR / CBP ternary complex): 1 to 10 nM
- IC50 (VCaP cells): 1 to 100 nM

Structure (SMILES): CC(=O)N1CCc2c(c(N3CCCc4cc(-c5cnn(C)c5)c(C(F)F)cc43)nn2C2CCN(C[C@@H]3CCN(c4ccc(C(=O)N[C@H]5CC[C@H](Oc6ccc(C#N)c(Cl)c6)CC5)nn4)C[C@@H]3C)CC2)C1 [Compound 233]
- EC50 (AR / CBP ternary complex): < 1 nM
- IC50 (VCaP cells): ≤ 0.1 nM

Structure (SMILES): CC(=O)N1CCc2c(c(N3CCCc4cc(-c5cnn(C)c5)c(C(F)F)cc43)nn2C2CCN(C[C@H]3CCN(c4ccc(C(=O)N[C@H]5CC[C@H](Oc6ccc(C#N)c(Cl)c6)CC5)nn4)C[C@H]3C)CC2)C1 [Compound 234]
- EC50 (AR / CBP ternary complex): < 1 nM
- IC50 (VCaP cells): ≤ 0.1 nM

Structure (SMILES): CC(=O)N1CCc2c(c(N3CCCc4cc(-c5cnn(C)c5)c(C(F)F)cc43)nn2C2CCC3(CC2)CN(C2CN(c4ccc(C(=O)N[C@H]5CC[C@H](Oc6ccc(C#N)c(Cl)c6)CC5)nn4)C2)C3)C1 [Compound 237]
- EC50 (AR / CBP ternary complex): < 1 nM
- IC50 (VCaP cells): ≤ 0.1 nM

Structure (SMILES): CC(=O)N1CCc2c(c(N3CCCc4cc(-c5cnn(C)c5)c(C(F)F)cc43)nn2C2CCC3(CC2)CN(C2CCN(c4ccc(C(=O)N[C@H]5CC[C@H](Oc6ccc(C#N)c(Cl)c6)CC5)nn4)CC2)C3)C1 [Compound 238, 6-[4-[7-[5-acetyl-3-[7-(difluoromethyl)-6-(1-methylpyrazol-4-yl)-3,4-dihydro-2H-quinolin-1-yl]-6,7-dihydro-4H-pyrazolo[4,3-c]pyridin-1-yl]-2-azaspiro[3.5]nonan-2-yl]-1-piperidyl]-N-[4-(3-chloro-4-cyano-phenoxy)cyclohexyl]pyridazine-3-carboxamide]
- EC50 (AR / CBP ternary complex): < 1 nM
- IC50 (VCaP cells): ≤ 0.1 nM

Structure (SMILES): CC(=O)N1CCc2c(c(N3CCCc4cc(-c5cnn(C)c5)c(C(F)F)cc43)nn2C2CC3(CCN(C4CCN(c5ccc(C(=O)N[C@H]6CC[C@H](Oc7ccc(C#N)c(Cl)c7)CC6)nn5)CC4)CC3)C2)C1 [Compound 239, 6-[4-[2-[5-acetyl-3-[7-(difluoromethyl)-6-(1-methylpyrazol-4-yl)-3,4-dihydro-2H-quinolin-1-yl]-6,7-dihydro-4H-pyrazolo[4,3-c]pyridin-1-yl]-7-azaspiro[3.5]nonan-7-yl]-1-piperidyl]-N-[4-(3-chloro-4-cyano-phenoxy)cyclohexyl]pyridazine-3-carboxamide]
- EC50 (AR / CBP ternary complex): < 1 nM
- IC50 (VCaP cells): ≤ 0.1 nM

Structure (SMILES): CC(=O)N1CCc2c(c(N3CCCc4cc(-c5cnn(C)c5)c(C(F)F)cc43)nn2C2CCN([C@H]3C[C@H](Oc4ccc(C(=O)N[C@H]5CC[C@H](Oc6ccc(C#N)c(Cl)c6)CC5)nn4)C3)CC2)C1 [Compound 240, 6-[3-[4-[5-acetyl-3-[7-(difluoromethyl)-6-(1-methylpyrazol-4-yl)-3,4-dihydro-2H-quinolin-1-yl]-6,7-dihydro-4H-pyrazolo[4,3-c]pyridin-1-yl]-1-piperidyl]cyclobutoxy]-N-[4-(3-chloro-4-cyano-phenoxy)cyclohexyl]pyridazine-3-carboxamide]
- EC50 (AR / CBP ternary complex): < 1 nM
- IC50 (VCaP cells): 0.1 to 1 nM

Structure (SMILES): CC(=O)N1CCc2c(c(N3CCCc4cc(-c5cnn(C)c5)c(C(F)F)cc43)nn2[C@H]2CC[C@H](C3CCC4(CC3)CN(c3ccc(C(=O)N[C@H]5CC[C@H](Oc6ccc(C#N)c(Cl)c6)CC5)nn3)C4)CC2)C1 [Compound 241, 6-[7-[4-[5-acetyl-3-[7-(difluoromethyl)-6-(1-methylpyrazol-4-yl)-3,4-dihydro-2H-quinolin-1-yl]-6,7-dihydro-4H-pyrazolo[4,3-c]pyridin-1-yl]cyclohexyl]-2-azaspiro[3.5]nonan-2-yl]-N-[4-(3-chloro-4-cyano-phenoxy)cyclohexyl]pyridazine-3-carboxamide]
- EC50 (AR / CBP ternary complex): 1 to 10 nM
- IC50 (VCaP cells): 0.1 to 1 nM
